Results taken from PMC9945734 (BMC Medicine, 2023).

What was measured:
[1] = test system: DU 145 (KLF5 null) cells expressing KLF5^K369Q; assay: CCK-8 cell viability assay; type: cell-based, human; conditions: for cell number: DU 145-KQ
Procedure: (§1) According to the manufacturer's instructions, cell viability was measured using a kit from Beyotime Biotechnology. Briefly, cells were seeded onto 96-well plates at 5 × 10^3 cells per well, incubated overnight, and then treated for 48 h with drugs at 0, 0.02, 0.05, 0.14, 0.41, 1.23, 3.7, 11.1, 33.3, and 100 μM. Four drugs were analyzed: furagin, nifuratel, nitazoxanide, and retapamulin. At the end of drug treatment, the medium was removed, the CCK-8 solution was added into each well at 100 μL/well and incubated for 1.5 h at 37°C, and the optical density (OD) was measured at 450 nm using a microplate reader (BioTek).
(§2) We also tested a wider range of NTZ concentrations in PC-3-KQ and DU 145-KQ cells using the CCK-8 assay by seeding 2 × 10^3 cells and 2.5 × 10^3 cells onto each well of 96-well plates. PC-3-KQ cells were treated with NTZ at 0, 0.01, 0.1, […], 2.5, and 5 μM, while DU 145-KQ cells were treated with NTZ at 0, 0.01, 0.1, 5, 10, and 20 μM for 0, 24, 48, and 72 h. The number of viable cells was determined using the CCK-8 solution as described above.

[2] = test system: PC-3 (KLF5 null) cells expressing KLF5^K369Q; assay: CCK-8 cell viability assay; type: cell-based, human; conditions: for cell number: PC-3-KQ
Procedure: as §1, §2

[3] = test system: PC-3-KQ-Luc cells; assay: Bone metastasis assay, therapy mode; type: in vivo, Balb/c nude mice
Procedure: Male Balb/c nude mice at 3-4 weeks old were purchased from Charles River (Beijing, China). Upon arrival at the Animal Center of the Southern University of Science and Technology (SUSTech), mice were quarantined for one week before use. All mice were maintained and handled following the National Institutes of Health guide for the Care and Use of Laboratory Animals. […] The tumor growth and body weight were measured each week. […] Tumor growth in the bone was determined once a week by in vivo BL imaging using the Living Image Software 4.4 (IVIS Spectrum, PerkinElmer Health Sciences, Massachusetts, USA). Ten minutes after intraperitoneal injection of D-luciferin sodium salt (15 mg/mL, 10 μL/g BW) (GM-040611, Genomeditech, Shanghai, China), bioluminescence images were acquired with the following conditions: open emission filter, exposure time = 60 s, binning = medium: 8, field of view = 12.9 ×12.9 cm, and f/stop = 1. Images were then analyzed using the Living Image 4.4 software (PerkinElmer). At the end of treatment, bioluminescence intensities were measured by photon flux of the region of interest (ROI) and compared between the vehicle and NTZ treatment groups. […] CC0113, […] Biotechnology, Beijing, China) was used as vehicle control, and NTZ was solved in CMC. NTZ was delivered into mice via intragastric administration (100 mg/kg BW) every day. After the sacrifice of mice, hind limbs were removed and fixed in 4% paraformaldehyde for 48 h. Limbs were then scanned using a micro-CT scanner (Skyscan1276, Bruker, Kontich, Belgium). For micro-CT imaging, the scan parameters were: source voltage, 60 kV; source current, 100 μA; AI 0.5 mm filter; pixel size, 10 μm; rotation step, 0.4 degrees. The images were then processed and constructed using the NRecon software (Version 1.7.1.6, Bruker) and converted using […] (Version 1.5.4, Bruker). The region of interest (ROI), set at 0.5 mm from the femur growth plate, was analyzed using the CT-Analyser (CTAn) program. Parameters included bone volume/total volume (BV/TV), trabecular number (Tb.N), trabecular separation (Tb.Sp), and trabecular thickness (Tb.Th). Finally, the 3D images were performed in CTvox software (Version 2.0, Bruker). Femurs were decalcified in ethylenediaminetetraacetic (EDTA) decalcification solution (Cat #: R20403-5L, OKA, Beijing, China) for 14-21 days. After decalcification, bone tissues were dehydrated in gradient ethanol from 70 to 95%, soaked in n-butanol for 6 h, and then embedded in paraffin. Tissue blocks were cut into 4 μm sections. After baking in an oven at 63°C for 1.5 h, tissue slides were deparaffinized with xylene, hydrated with gradient ethanol, and then stained with H&E (Cat #: BA4025, BaSO, Zhuhai, China). Slides were then mounted for analysis with neutral resins (Cat #: 25608-33-7, Sigma-Aldrich, MO, USA).

[4] = test system: MMP9; assay: MMP9 immunohistochemical staining of bone metastases; type: in vivo, Balb/c nude mice; conditions: KLF5^K369Q-induced bone metastases
Procedure: (§3) Immunohistochemical staining was conducted following established procedures. Briefly, 4-μm sections of bone tissues were deparaffinized in xylene and rehydrated in gradient ethanol. The endogenous antigen was retrieved by incubating slides in 10 mM sodium citrate buffer (Cat #: C1010, Solarbio, Beijing, China) overnight in an oven at 65°C. After antigen retrieving, tissue sections were incubated with 3% hydrogen peroxide at room temperature for 10 min to block the endogenous […] activity. They were then incubated in a blocking solution (0.1% albumin bovine V mixed with 10% goat serum) for 40 min, and a solution containing a primary antibody (MMP9, 1:1000, Cat #: ab76003, Abcam, Cambridge, UK; MYBL2, 1:100, Cat #: ab76009, Abcam) for 1.5 h. After rinsing with PBS for 3 times, slides were incubated with the secondary antibody solution for 15 min and then with the DAB solution using the MaxVision II HRP kit (Cat #: KIT-5920, MXB Biotechnologies, Fuzhou, China). Nuclei were counterstained with hematoxylin for 2 min. Slides were then dehydrated with gradient ethanol (75–100%) and xylene and mounted with coverslips using the quick-hardening mounting medium. All slides were scanned using an Aperio VERSA 8 Scanner System (Leica, Wetzlar, Germany) and analyzed using the Image J software (Image J 1.48v, NIH, Bethesda, MD, USA).

[5] = test system: MYBL2; assay: MYBL2 immunohistochemical staining of bone tissues; type: in vivo, Balb/c nude mice; conditions: treatment in mice
Procedure: as §3

[6] = lower concentrations (0–0.1 μM), 0 to 72 h
[7] = 100 mg/kg intragastric every day

`CC(=O)Oc1ccccc1C(=O)Nc1ncc([N+](=O)[O-])s1` [Nitazoxanide] was tested, and the cell number ([1]; higher concentrations (up to 20 μM)) was “decreased cell number”, the cell number [1, 6] was “did not affect cell number” and the IC50 ([1]; Homo sapiens, DU 145 (KLF5 null), KLF5^K369Q, CCK-8, 48 h) was 22.7 ± 2.3 µM. The IC50 ([2]; Homo sapiens, PC-3 (KLF5 null), KLF5^K369Q, CCK-8, 48 h) was 5.4 ± 0.5 µM, the cell number ([2]; higher concentrations (up to 5 μM)) was “decreased cell number” and the cell number [2, 6] was “did not affect cell number”. For the same molecule, the “bone lesions (micro-CT)” value [3, 7] was “significantly reduced such lesions”, the “tumor area in the bone (H&E)” value [3, 7] was “significantly reduced the tumor area” and the BV/TV ([3]; micro-CT of femurs) was “significantly increased”. The “Tb. N” value ([3]; micro-CT of femurs) was “significantly increased”, the “Tb. Sp” value ([3]; micro-CT of femurs) was “potently decreased” and the “Tb. Th” value ([3]; micro-CT of femurs) was “significantly increased”. The bioluminescence intensities ([3]; treatment from day 7 for 4 weeks, 100 mg/kg intragastric every day) was “sharply decreased bioluminescence intensities”, the “MMP9 protein expression (IHC)” value [4] was “decrease of MMP9 protein expression” and the “MYBL2 protein expression in bone tissues (IHC)” value [5] was “significantly decreased MYBL2 protein expression”.
